pKi: −log10 of the molar value.
Biological target: GHS-R (Homo sapiens, UniProt Q92847)
Assay: GHS-R antagonist activity (Ki) in a cell based assay
Procedure: Cell-Based Activity Assays. For example, the ability of the compound to modulate accumulation of a second messenger signaling component downstream of GHS-R can be evaluated. For example, inositol phosphates (IP), as a result of Gq signaling in a mammalian cell, e.g., a Cos-7 cells. Other tissue culture cells, Xenopus oocytes, and primary cells can also be used.
Phosphatidylinositol turnover assay. One day after transfection COS-7 cells are incubated for 24 hours with 5 μCi of [^3H]-myo-inositol in 1 ml medium supplemented with 10% fetal calf serum, 2 mM glutamine and 0.01 mg/ml gentamicin per well. Cells are then washed twice in buffer, 20 mM HEPES, pH 7.4, supplemented with 140 mM NaCl, 5 mM KCl, 1 mM MgSO4, 1 mM CaCl2, 10 mM glucose, 0.05% (w/v) bovine serum; and incubated in 0.5 ml buffer supplemented with 10 mM LiCl at 37° C. for 30 min. For some assays, it is also useful to incubate the cells with adenosine deaminase ADA (200 U/mg, Boehringer Mannheim, Germany) for 30 min in a concentration of 1 U/ml.
After incubation with the compound of interest for 45 min at 37° C., cells are extracted with 10% ice-cold perchloric acid and placed on ice for 30 min. The resulting supernatants are neutralized with KOH in HEPES buffer, and [^3H]-inositol phosphate is purified on Bio-Rad AG 1-X8 anion exchange resin as described. Assays can be run in duplicate, triplicate, etc. […]

GHS-R, sequence (Q92847 whole entry, species assumed): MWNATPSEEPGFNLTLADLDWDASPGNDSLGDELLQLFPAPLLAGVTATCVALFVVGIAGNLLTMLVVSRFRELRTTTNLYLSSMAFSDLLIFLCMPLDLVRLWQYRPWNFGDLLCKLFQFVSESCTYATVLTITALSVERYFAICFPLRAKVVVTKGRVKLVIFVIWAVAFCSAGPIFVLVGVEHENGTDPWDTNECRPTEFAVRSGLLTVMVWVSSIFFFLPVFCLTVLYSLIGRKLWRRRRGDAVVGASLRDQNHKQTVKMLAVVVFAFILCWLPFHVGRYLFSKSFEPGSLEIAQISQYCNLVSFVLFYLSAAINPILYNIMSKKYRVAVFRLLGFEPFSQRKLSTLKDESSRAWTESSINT

Row | SMILES | pKi
1 | CCN(CC)CCS(=O)(=O)N[C@H](CCc1ccccc1)c1nc(-c2ccccc2C)no1 [Compound 13, 2-Diethylamino-ethanesulfonic acid [(R)-3-phenyl-1-(3-o-tolyl-[1,2,4]oxadiazol-5-yl)-propyl]-amide] | 6.00 to 6.30
2 | CCN(CC)CCS(=O)(=O)N[C@H](CCc1ccccc1)c1nc(-c2ncccc2C)no1 [Compound 14, 2-Diethylamino-ethanesulfonic acid {(R)-1-[3-(3-methyl-pyridin-2-yl)-[1,2,4]oxadiazol-5-yl]-3-phenyl-propyl}-amide] | 6.30 to 7.00
3 | CCN(CC)CCCS(=O)(=O)N[C@H](CCc1ccccc1)c1nc(-c2ccccc2OC)no1 [Compound 16, 3-Diethylamino-propane-1-sulfonic acid {(R)-1-[3-(2-methoxy-phenyl)-[1,2,4]oxadiazol-5-yl]-3-phenyl-propyl}-amide] | 6.00 to 6.30
4 | CCN(CC)CCS(=O)(=O)N[C@H](CCc1ccccc1)c1nc(-c2ccccc2)no1 [Compound 17, 2-Diethylamino-ethanesulfonic acid [(R)-3-phenyl-1-(3-phenyl-[1,2,4]oxadiazol-5-yl)-propyl]-amide] | 6.30 to 7.00
5 | CCN(CC)CCS(=O)(=O)N[C@H](CCc1ccccc1)c1nc(-c2c(Cl)cccc2Cl)no1 [Compound 18, 2-Diethylamino-ethanesulfonic acid {(R)-1-[3-(2,6-dichloro-phenyl)-[1,2,4]oxadiazol-5-yl]-3-phenyl-propyl}-amide] | 6.30 to 7.00
6 | CCN(CC)CCS(=O)(=O)N[C@H](CCc1ccccc1)c1nc(-c2ccccc2OC)no1 [Compound 19, 2-Diethylamino-ethanesulfonic acid {(R)-1-[3-(2-methoxy-phenyl)-[1,2,4]oxadiazol-5-yl]-3-phenyl-propyl}-amide] | ≤ 6.00
7 | CCN(CC)CCCS(=O)(=O)N[C@@H](CCc1ccccc1)c1nc(-c2ccccc2C)no1 [Compound 21, 3-Diethylamino-propane-1-sulfonic acid [(S)-3-phenyl-1-(3-o-tolyl-[1,2,4]oxadiazol-5-yl)-propyl]-amide] | 6.30 to 7.00
8 | CCN(CC)CCCS(=O)(=O)N[C@H](COCc1ccccc1)c1nc(-c2ccccc2)n[nH]1 [Compound 25, 3-Diethylamino-propane-1-sulfonic acid [(S)-2-benzyloxy-1-(5-phenyl-2H-[1,2,4]triazol-3-yl)-ethyl]-amide] | 6.30 to 7.00
9 | CCN(CC)CCS(=O)(=O)N[C@H](CCc1ccccc1)c1nc(-c2ccccn2)no1 [Compound 27, 2-Diethylamino-ethanesulfonic acid [(R)-3-phenyl-1-(3-pyridin-2-yl-[1,2,4]oxadiazol-5-yl)-propyl]-amide] | 6.30 to 7.00
10 | CCN(CC)CCCS(=O)(=O)N[C@H](COCc1ccccc1)c1nc(-c2ccccc2C)no1 [Compound 33, 3-Diethylamino-propane-1-sulfonic acid [(R)-2-benzyloxy-1-(3-o-tolyl-[1,2,4]oxadiazol-5-yl)-ethyl]-amide] | ≤ 6.00
11 | CCN(CC)CCCS(=O)(=O)N[C@H](COCc1ccccc1)c1nc(-c2ncccc2C)no1 [Compound 34, 3-Diethylamino-propane-1-sulfonic acid {(R)-2-benzyloxy-1-[3-(3-methyl-pyridin-2-yl)-[1,2,4]oxadiazol-5-yl]-ethyl}-amide] | 6.00 to 6.30
12 | CCN(CC)C1CCC(S(=O)(=O)N[C@H](CCc2ccccc2)c2nnc(-c3ccc(F)cc3)[nH]2)CC1 (stereo partly drawn) [Compound 35, 4-Diethylamino-cyclohexanesulfonic acid {(R)-1-[5-(4-fluoro-phenyl)-4H-[1,2,4]triazol-3-yl]-3-phenyl-propyl}-amide] | 6.30 to 7.00
13 | CCN(CC)CCS(=O)(=O)N[C@H](CCc1ccccc1)c1nc(-c2c(C)cccc2C)no1 [Compound 36, 2-Diethylamino-ethanesulfonic acid {(R)-1-[3-(2,6-dimethyl-phenyl)-[1,2,4]oxadiazol-5-yl]-3-phenyl-propyl}-amide] | ≤ 6.00
14 | CCN(CC)CCCS(=O)(=O)N[C@H](CCc1ccccc1)c1nc(-c2c(OC)cccc2OC)no1 [Compound 37, 3-Diethylamino-propane-1-sulfonic acid {(R)-1-[3-(2,6-dimethoxy-phenyl)-[1,2,4]oxadiazol-5-yl]-3-phenyl-propyl}-amide] | 6.00 to 6.30
15 | CCN(CC)CCCS(=O)(=O)N[C@H](CCc1ccccc1)c1nc(-c2c[nH]c3ccccc23)n[nH]1 [Compound 38, 3-Diethylamino-propane-1-sulfonic acid {(R)-1-[5-(1H-indol-3-yl)-2H-[1,2,4]triazol-3-yl]-3-phenyl-propyl}-amide] | > 7.00
16 | CCN(CC)CCCS(=O)(=O)N[C@H](CCc1ccccc1)c1nc(-c2ccccn2)no1 [Compound 39, 3-Diethylamino-propane-1-sulfonic acid [(R)-3-phenyl-1-(3-pyridin-2-yl-[1,2,4]oxadiazol-5-yl)-propyl]-amide] | 6.00 to 6.30
17 | CCN(CC)CCCS(=O)(=O)N[C@H](CCc1ccccc1)c1nc(-c2ccc(C#N)cc2)n[nH]1 [Compound 40, 3-Diethylamino-propane-1-sulfonic acid {(R)-1-[5-(4-cyano-phenyl)-2H-[1,2,4]triazol-3-yl]-3-phenyl-propyl}-amide] | > 7.00
18 | CCN(CC)CCCS(=O)(=O)N[C@H](CCc1ccccc1)c1nc(-c2cccnc2)no1 [Compound 41, 3-Diethylamino-propane-1-sulfonic acid [(R)-3-phenyl-1-(3-pyridin-3-yl-[1,2,4]oxadiazol-5-yl)-propyl]-amide] | 6.30 to 7.00
19 | CCN(CC)CCCS(=O)(=O)N[C@H](CCc1ccccc1)c1nc(-c2ccc(C(C)(C)C)cc2)n[nH]1 [Compound 42, 3-Diethylamino-propane-1-sulfonic acid {(R)-1-[5-(4-tert-butyl-phenyl)-2H-[1,2,4]triazol-3-yl]-3-phenyl-propyl}-amide] | ≤ 6.00
20 | CCN(CC)CCS(=O)(=O)N[C@H](CCc1ccccc1)c1nc(-c2cccnc2)no1 [Compound 43, 2-Diethylamino-ethanesulfonic acid [(R)-3-phenyl-1-(3-pyridin-3-yl-[1,2,4]oxadiazol-5-yl)-propyl]-amide] | 6.30 to 7.00

The next lines start with the values.

Row | pKi | SMILES
21 | > 7.00 | CCN(CC)CCCS(=O)(=O)N[C@H](CCc1ccccc1)c1nc(-c2cccc(F)c2)n[nH]1 [Compound 15, 3-Diethylamino-propane-1-sulfonic acid {(R)-1-[5-(3-fluoro-phenyl)-2H-[1,2,4]triazol-3-yl]-3-phenyl-propyl}-amide]
22 | > 7.00 | CCN(CC)CCCS(=O)(=O)N[C@H](CCc1ccccc1)c1nc(-c2ccc3[nH]ccc3c2)n[nH]1 [Compound 20, 3-Diethylamino-propane-1-sulfonic acid {(R)-1-[5-(1H-indol-5-yl)-2H-{1,2,4]triazol-3-yl]-3-phenyl-propyl}-amide]
23 | > 7.00 | CCN(CC)CCCS(=O)(=O)N[C@H](CCc1ccccc1)c1nc(-c2ccc(Cl)cc2)n[nH]1 [Compound 22, 3-Diethylamino-propane-1-sulfonic acid {(R)-1-[5-(4-chloro-phenyl)-2H-[1,2,4]triazol-3-yl]-3-phenyl-propyl}-amide]
24 | > 7.00 | CCN(CC)CCCS(=O)(=O)N[C@H](CCc1ccccc1)c1nc(-c2ccccc2)n[nH]1 [Compound 23, 3-Diethylamino-propane-1-sulfonic acid [(R)-3-phenyl-1-(5-phenyl-2H-[1,2,4]triazol-3-yl)-propyl]-amide]
25 | > 7.00 | CCN(CC)CCCS(=O)(=O)N[C@H](CCc1ccccc1)c1nc(Cc2ccc(Cl)cc2)n[nH]1 [Compound 24, 3-Diethylamino-propane-1-sulfonic acid {(R)-1-[5-(4-chloro-benzyl)-2H-[1,2,4]triazol-3-yl]-3-phenyl-propyl}-amide]
26 | > 7.00 | CCN(CC)CCS(=O)(=O)N[C@H](CCc1ccccc1)c1nc(-c2ccccc2)n[nH]1 [Compound 28, 2-Diethylamino-ethanesulfonic acid [(R)-3-phenyl-1-(5-phenyl-2H-[1,2,4]triazol-3-yl)-propyl]-amide]
27 | > 7.00 | CCN(CC)CCCS(=O)(=O)N[C@H](CCc1ccccc1)c1nc(-c2ccccc2F)n[nH]1 [Compound 29, 3-Diethylamino-propane-1-sulfonic acid {(R)-1-[5-(2-fluoro-phenyl)-2H-[1,2,4]triazol-3-yl]-3-phenyl-propyl}-amide]
28 | > 7.00 | CCN(CC)CCCS(=O)(=O)N[C@H](CCc1ccccc1)c1nc(Cc2ccc3c(c2)OCO3)n[nH]1 [Compound 30, 3-Diethylamino-propane-1-sulfonic acid [(R)-1-(5-benzo[1,3]dioxol-5-ylmethyl-2H-[1,2,4]triazol-3-yl)-3-phenyl-propyl]-amide]
29 | > 7.00 | CCN(CC)CCCS(=O)(=O)N[C@H](CCc1ccccc1)c1nc(-c2cccnc2Cl)no1 [Compound 31, 3-Diethylamino-propane-1-sulfonic acid {(R)-1-[3-(2-chloro-pyridin-3-yl)-[1,2,4]oxadiazol-5-yl]-3-phenyl-propyl}-amide]
30 | > 7.00 | CCN(CC)CCCS(=O)(=O)N[C@H](CCc1ccccc1)c1nc(Cc2ccc(OC)c(OC)c2)n[nH]1 [Compound 32, 3-Diethylamino-propane-1-sulfonic acid {(R)-1-[5-(3,4-dimethoxy-benzyl)-2H-[1,2,4]triazol-3-yl]-3-phenyl-propyl}-amide]

Source: patent publication US7829589B2, “Sulfonamide compounds and uses thereof” (Elixir Pharmaceuticals, Inc., priority 2005, dated 2010)
